Data set [1] can be described thus: In vitro drug release, dialysis-bag diffusion technique. Particulars: dialysis MWCO 3.5 kDa, 4% albumin in water, 37° C., n=3. It counts as physicochemical. As to the method:
[…] The concentrations of SN-38 in collected samples were determined by UV-Vis spectrophotometer (BioTEK, Winooski, VT, USA). Detection was performed at a wavelength of 383 nm. […] All experiments were carried out in triplicate.

Data set [2] concerns HCT116. As to the kind of experiment: Western blot of cleaved PARP, γ-H2AX, cleaved caspase-3 and -7. It counts as cell-based, human. Conditions: HCT116, 10 μM, 6 h. The method, then: (§1) In brief, 1×10^6 cells were plated in each well of 6-well plates 24 h prior to the treatments. […] The cells of 3 controls received only 0.1% DMSO, 10 μM A83, and 10 μM PM26/A83, respectively. Protein extracts for western blot analysis were prepared using commercial RIPA lysis buffer (ThermoFisher Scientific, Canada) supplemented with a cocktail of protease inhibitors (Millipore Sigma, Canada). Protein concentrations were measured using the BCA assay kit (Pierce/ThermoFisher Scientific, Canada) according to the manufacturer's protocol. Equal concentrations of protein were separated by SDS-PAGE and transferred to nitrocellulose membranes. After blocking with 5% skimmed milk in TBST (50 mM Tris-HCl, pH 7.4, 150 mM NaCl, and 0.1% Tween 20), the blots were incubated with the respective primary antibodies (cleaved caspase-3 cat #9661S, cleaved caspase-7 cat #9491S, PARP cat #9542S, phospho-histone H2A.X (Ser139) cat #9718S) and secondary antibody (HRP-linked anti-rabbit IgG cat #7074S) purchased from Cell Signaling Technology (Whitby, ON, Canada). The protein bands were detected using an enhanced chemiluminescence (ECL) based system (Pierce/ThermoFisher Scientific, Canada). The band intensities for the PNKP protein were quantified by performing optical density analysis using ImageJ software. Each experiment was carried out in triplicate.

In data set [3] the test system is HT-29. The data set is described as above. It counts as cell-based, human. Conditions: HT-29, 10 μM, 6 h. As to the method:
as §1

Data set [4] can be described thus: Water solubilized level of drug. It counts as physicochemical.
Data set [5] deals with healthy CD-1 mice. Particulars: up to 50 mg/kg intravenously, Cremophor EL: Ethanol or micellar formulation [20]; cited from earlier work.
Data set [6] concerns HCT116. The data set is described as follows: In vitro cytotoxicity assay (MTS).
Procedure: (§2) Two CRC cell lines, HCT116 and HT-29 originally purchased from ATCC were used. The cells were cultured at 37° C. in 5% CO2 in a humidified incubator in a 1:1 mixture of Dulbecco's modified Eagle medium and F12 (DMEM/F12) supplemented with 10% FBS, 50 U/mL penicillin, 50 mg/mL streptomycin, 2 mmol/L L-glutamine, 0.1 mmol/L nonessential amino acids, and 1 mmol/L sodium pyruvate.
(§3) In brief, 2×10^3 cells were plated in each well of 96-well flat-bottomed plates 24 h prior to the treatments. […] After different experimental incubation time points (24, 48, and 72 h), 20 μL of MTS reagent was added in each well and further incubated for 1 h at 37° C. before measuring the absorbance at 490 nm using BioTEK microplate reader. Each experiment was performed in quadruplicates.
In data set [7] the test system is HT-29. As to the kind of experiment: In vitro cytotoxicity assay (MTS). Particulars: Homo sapiens.
Procedure: as §2, §3
For data set [8] the following is noted: literature [5]; cited from earlier work.

This is an account of results in patent US20250120912A1, “SYNERGISTIC NANOMEDICINE DELIVERING TOPOISOMERASE I TOXIN (SN-38) AND INHIBITORS OF POLYNUCLEOTIDE KINASE 3'-PHOSPHATASE (PNKP) FOR ENHANCED TREATMENT OF COLORECTAL CANCER” (THE GOVERNORS OF THE UNIVERSITY OF ALBERTA, priority 2021, published 2025).

The structures appear in SMILES notation. Converted amounts (≈) assume the structure as drawn. Read-outs that look alike come from different tables or passages of the source.

In the case of `COc1ccccc1C(O)C1C=CC2C(=O)N(Cc3cccc4ccccc34)C(=O)C2N1Nc1ccc([N+](=O)[O-])cc1` (centres unmarked) [A83B4C63, 2-[hydroxy (2-methoxyphenyl)methyl]-6-(naphthalene-1-ylmethyl)-1-[(4-nitrophenyl)amino]-2H, 4aH, 7aH-pyrrolo[3,4-b]pyridine-5,7-dione], the “release of A83B4C63” value in data set [1] (over 6 h) is recorded as 98.81±2.09%. In addition, the apoptotic signaling result in data set [2] and in data set [3] was “no apoptotic signaling” in each case. The solubility (usually how much of the substance goes into solution per volume) in data set [4] (water, without micelles) was determined as 1 µM (≈ 0.565 µg/mL). For the same compound, in data set [5], the “systemic and tissue toxicity” value is reported as “neither systemic nor tissue toxicity”. Further, the IC50 (usually the concentration that inhibits the measured activity by half) was > 40 µM in data set [6] (Homo sapiens, HCT-116, read-out: relative IC50 of PNKP inhibitor alone) and > 40 µM in data set [7] (HT-29, read-out: relative IC50 of PNKP inhibitor alone).

For the compound `CCc1c2c(nc3ccc(O)cc13)-c1cc3c(c(=O)n1C2)COC(=O)[C@]3(O)CC` [SN-38, (S)-4, 11-Diethyl-4,9-di-OH-1, 12-dihydro-4H-2-oxa-6,12α-diaza-dibenzo[b, h]fluorene-3,13-dione], the “release of SN-38” value in data set [1] (over 6 h) is 96.46±1.43%. Further, the “release of A83B4C63” value in data set [1] (over 24 h) turned out to be 99.81±0.01%. Also, the “water solubilized level of SN-38” value in data set [4] (unconjugated SN-38) is 25 µg/mL. Also, the “potency relative to the prodrug irinotecan” value in data set [8] was 1,000 times. For the same compound, the IC50 in data set [6] (read-out: IC50 (relative IC50), HCT116, 24 h, as TOP1 inhibitor concentration, A83B4C63 10 μM where present, n = 4) worked out at 0.14 ± 0.04 µM; in data set [6] (read-out: IC50 (relative IC50), HCT116, 48 h, as TOP1 inhibitor concentration, A83B4C63 10 μM where present, n = 4) it was 0.05 ± 0.01 µM; in data set [6] (read-out: IC50 (relative IC50), HCT116, 72 h, as TOP1 inhibitor concentration, A83B4C63 10 μM where present, n = 4), 0.02 ± 0.01 µM.

With `CCc1c2c(nc3ccc(OC(=O)N4CCC(N5CCCCC5)CC4)cc13)-c1cc3c(c(=O)n1C2)COC(=O)[C@]3(O)CC` [Irinotecan, 7-ethyl-10-[4-(1-piperidino)-1-piperidino] carbonyloxycamptothecin], the concentration for half-maximal inhibition (IC50) came out at 7.3 ± 3.7 µM in data set [6] (Homo sapiens, HCT-116, 24 h, read-out: IC50 (relative IC50)); 3.9 ± 1.7 µM in data set [6] (Homo sapiens, HCT-116, 48 h, read-out: IC50 (relative IC50)); 6.3 ± 1.6 µM in data set [6] (Homo sapiens, HCT-116, 72 h, read-out: IC50 (relative IC50)); 10.7 ± 4.5 µM in data set [7] (HT-29, 24 h, read-out: IC50 (relative IC50)); 11.6 ± 4.3 µM in data set [7] (HT-29, 48 h, read-out: IC50 (relative IC50)); 7.1 µM in data set [7] (HT-29, 72 h, read-out: IC50 (relative IC50)).
